Patent US11053204B2, “Pyrimidinyloxy benzene derivatives as herbicides” (FMC Corporation, priority 2015, dated 2021)

Assays:
Type in all cases: in vivo
[1] = test system: barnyardgrass (Echinochloa crus-galli); experiment: Test B flooded paddy test, plant response rating; conditions: 250 g ai/ha; Flood; scale of 0 to 100 where 0 is no effect and 100 is complete control; 13 to 15 days
Summary of the method: (§1)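 Under a constant 3 cm flood, test compounds went directly into the paddy water. Following 13 to 15 days of greenhouse growth, treated species and controls were compared by eye.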

rice (Oryza sativa) = experiment: Test B flooded paddy test, plant response rating; conditions: 250 g ai/ha; Flood; scale of 0 to 100 where 0 is no effect and 100 is complete control; 13 to 15 days
Summary of the method: as §1

[2] = test system: ducksalad (Heteranthera limosa); experiment: Test B flooded paddy test, plant response rating; conditions: 250 g ai/ha; Flood; scale of 0 to 100 where 0 is no effect and 100 is complete control; 13 to 15 days
Summary of the method: as §1

[3] = test system: sedge, umbrella (small-flower umbrella sedge, Cyperus difformis); experiment: Test B flooded paddy test, plant response rating; conditions: 250 g ai/ha; Flood; scale of 0 to 100 where 0 is no effect and 100 is complete control; 13 to 15 days
Summary of the method: as §1

[4] = test system: pigweed (Amaranthus retroflexus); experiment: Test A preemergence, visual injury rating
Summary of the method: (§2)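 Visual injury scored 0–100 (100 = complete control) against untreated controls about 10 days after treatment in a greenhouse. Test chemicals, formulated with surfactant in non-phytotoxic solvent, were sprayed on soil preemergence or on 2-10 cm, one- to two-leaf plants postemergence.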

kochia (Kochia scoparia) [5] = experiment: Test A preemergence, visual injury rating
Summary of the method: as §2

[6] = test system: barnyardgrass (Echinochloa crus-galli); experiment: Test A preemergence, visual injury rating; conditions: for Plant response rating, Barnyardgrass: 31 g ai/ha, 0 to 100 scale, 0 no effect, 100 complete control; for Barnyardgrass plant response rating: 125 g ai/ha, 0 to 100 scale (0 no effect, 100 complete control)
Summary of the method: as §2

[7] = test system: ragweed (common ragweed, Ambrosia elatior); experiment: Test A preemergence, visual injury rating
Summary of the method: as §2

[8] = test system: giant foxtail (Setaria faberii); experiment: Test A preemergence, visual injury rating
Summary of the method: as §2

[9] = test system: Italian ryegrass (Lolium multiflorum); experiment: Test A preemergence, visual injury rating
Summary of the method: as §2

[10] = test system: pigweed (Amaranthus retroflexus); experiment: Test A postemergence, visual injury rating; conditions: 0 to 100 scale, 0 is no effect, 100 is complete control, approximately 10 days
Summary of the method: as §2

[11] = test system: galium (catchweed bedstraw, Galium aparine); experiment: Test A postemergence, visual injury rating; conditions: 0 to 100 scale, 0 is no effect, 100 is complete control, approximately 10 days
Summary of the method: as §2

[12] = test system: wheat (Triticum aestivum); experiment: Test A postemergence, visual injury rating; conditions: 0 to 100 scale, 0 is no effect, 100 is complete control, approximately 10 days
Summary of the method: as §2

kochia (Kochia scoparia) [13] = experiment: Test A postemergence, visual injury rating; conditions: 0 to 100 scale, 0 is no effect, 100 is complete control, approximately 10 days
Summary of the method: as §2

[14] = test system: barnyardgrass (Echinochloa crus-galli); experiment: Test A postemergence, visual injury rating; conditions: 0 to 100 scale, 0 is no effect, 100 is complete control, approximately 10 days
Summary of the method: as §2

[15] = test system: ragweed (common ragweed, Ambrosia elatior); experiment: Test A postemergence, visual injury rating; conditions: 0 to 100 scale, 0 is no effect, 100 is complete control, approximately 10 days
Summary of the method: as §2

[16] = test system: giant foxtail (Setaria faberii); experiment: Test A postemergence, visual injury rating; conditions: 0 to 100 scale, 0 is no effect, 100 is complete control, approximately 10 days
Summary of the method: as §2

[17] = test system: blackgrass (Alopecurus myosuroides); experiment: Test A postemergence, visual injury rating; conditions: 0 to 100 scale, 0 is no effect, 100 is complete control, approximately 10 days
Summary of the method: as §2

[18] = test system: Italian ryegrass (Lolium multiflorum); experiment: Test A postemergence, visual injury rating; conditions: 0 to 100 scale, 0 is no effect, 100 is complete control, approximately 10 days
Summary of the method: as §2

corn (Zea mays) = experiment: Test A postemergence, visual injury rating; conditions: 0 to 100 scale, 0 is no effect, 100 is complete control, approximately 10 days
Summary of the method: as §2

[19] = 31 g ai/ha, 0 to 100 scale, 0 no effect, 100 complete control
[20] = 125 g ai/ha, 0 to 100 scale (0 no effect, 100 complete control)

SMILES | Plant response rating, Barnyardgrass [1] | Plant response rating, Rice (rice (Oryza sativa)) | Plant response rating, Ducksalad [2] | Plant response rating, Sedge, Umbrella [3] | Plant response rating, Pigweed [4, 19] | Plant response rating, Kochia (kochia (Kochia scoparia) [5]; [19]) | Plant response rating, Barnyardgrass [6] | Barnyardgrass plant response rating [6] | Plant response rating, Ragweed [7, 19] | Plant response rating, Foxtail, Giant [8, 19] | Plant response rating, Ryegrass, Italian [9, 19] | Pigweed plant response rating ([10]; 31 g ai/ha) | Pigweed plant response rating ([10]; 125 g ai/ha) | Galium plant response rating ([11]; 31 g ai/ha) | Galium plant response rating ([11]; 125 g ai/ha) | Wheat plant response rating ([12]; 31 g ai/ha) | Wheat plant response rating ([12]; 125 g ai/ha) | Kochia plant response rating (kochia (Kochia scoparia) [13]; 31 g ai/ha) | Kochia plant response rating (kochia (Kochia scoparia) [13]; 125 g ai/ha) | Barnyardgrass plant response rating ([14]; 31 g ai/ha) | further results
C=C(C)CCOC(=O)c1c(Br)cccc1Oc1ncc(Cl)cn1 [Compound 90] | 0 | 0 | 30 | 60 | 0 | 0 | 0 | 40 | 0 | 10 | 0 | 10 | 50 | 0 | 20 | 0 | 0 | 30 | 50 | 0 | Pigweed plant response rating [4, 20]: 0; Kochia plant response rating (kochia (Kochia scoparia) [5]; [20]): 0; Ragweed plant response rating [7, 20]: 0; Foxtail, Giant plant response rating [8, 20]: 70; Ryegrass, Italian plant response rating [9, 20]: 0; Barnyardgrass plant response rating ([14]; 125 g ai/ha): 30; Ragweed plant response rating ([15]; 31 g ai/ha): 0; Ragweed plant response rating ([15]; 125 g ai/ha): 0; Foxtail, Giant plant response rating ([16]; 31 g ai/ha): 10; Foxtail, Giant plant response rating ([16]; 125 g ai/ha): 60; Blackgrass plant response rating ([17]; 31 g ai/ha): 0; Blackgrass plant response rating ([17]; 125 g ai/ha): 0; Ryegrass, Italian plant response rating ([18]; 31 g ai/ha): 0; Ryegrass, Italian plant response rating ([18]; 125 g ai/ha): 0; Corn plant response rating (corn (Zea mays); 31 g ai/ha): 0; Corn plant response rating (corn (Zea mays); 125 g ai/ha): 10
O=C(OCCC(F)(F)F)c1cc(Br)ccc1Oc1ncc(Cl)cn1 [Compound 94] | 0 | 0 | 0 | 0 | 0 | 0 | 0 | 0 | 0 | 0 | 0 | 0 | 0 | 0 | 0 | 0 | 0 | 0 | 0 | 0 | Pigweed plant response rating [4, 20]: 0; Kochia plant response rating (kochia (Kochia scoparia) [5]; [20]): 0; Ragweed plant response rating [7, 20]: 0; Foxtail, Giant plant response rating [8, 20]: 0; Ryegrass, Italian plant response rating [9, 20]: 0; Barnyardgrass plant response rating ([14]; 125 g ai/ha): 0; Ragweed plant response rating ([15]; 31 g ai/ha): 0; Ragweed plant response rating ([15]; 125 g ai/ha): 0; Foxtail, Giant plant response rating ([16]; 31 g ai/ha): 0; Foxtail, Giant plant response rating ([16]; 125 g ai/ha): 0; Blackgrass plant response rating ([17]; 31 g ai/ha): 0; Blackgrass plant response rating ([17]; 125 g ai/ha): 0; Ryegrass, Italian plant response rating ([18]; 31 g ai/ha): 0; Ryegrass, Italian plant response rating ([18]; 125 g ai/ha): 0; Corn plant response rating (corn (Zea mays); 31 g ai/ha): 0; Corn plant response rating (corn (Zea mays); 125 g ai/ha): 0
CCCCCOC(=O)c1c(Br)cccc1Oc1ncc(Cl)cn1 [Compound 101] | 0 | 0 | 0 | 0 | 0 | 0 | 0 | 10 | 0 | 0 | 0 | 20 | 60 | 10 | 40 | 0 | 0 | 0 | 20 | 10 | Plant response rating, Pigweed [4, 20]: 0; Plant response rating, Kochia (kochia (Kochia scoparia) [5]; [20]): 0; Plant response rating, Ragweed [7, 20]: 0; Plant response rating, Foxtail, Giant [8, 20]: 40; Plant response rating, Ryegrass, Italian [9, 20]: 0; Barnyardgrass plant response rating ([14]; 125 g ai/ha): 20; Ragweed plant response rating ([15]; 31 g ai/ha): 0; Ragweed plant response rating ([15]; 125 g ai/ha): 0; Foxtail, Giant plant response rating ([16]; 31 g ai/ha): 0; Foxtail, Giant plant response rating ([16]; 125 g ai/ha): 20; Blackgrass plant response rating ([17]; 31 g ai/ha): 0; Blackgrass plant response rating ([17]; 125 g ai/ha): 0; Ryegrass, Italian plant response rating ([18]; 31 g ai/ha): 0; Ryegrass, Italian plant response rating ([18]; 125 g ai/ha): 10; Corn plant response rating (corn (Zea mays); 31 g ai/ha): 0; Corn plant response rating (corn (Zea mays); 125 g ai/ha): 0
